This assay concerns Vesicular inhibitory amino acid transporter (Rattus norvegicus) + Acetylcholine receptor subunit alpha (Homo sapiens) + Estrogen receptor (Homo sapiens) + Glucocorticoid receptor (Homo sapiens) + Sodium channel protein type 1 subunit alpha (Rattus norvegicus) + Beta-2 adrenergic receptor (Homo sapiens) + Muscarinic acetylcholine receptor M2 (Homo sapiens) + Beta-1 adrenergic receptor (Homo sapiens) + 5-hydroxytryptamine receptor 1A (Homo sapiens) + Alpha-2A adrenergic receptor (Homo sapiens) + Muscarinic acetylcholine receptor M1 (Homo sapiens) + Interleukin-1 receptor type 1 (Mus musculus) + D(2) dopamine receptor (Homo sapiens) + Androgen receptor (Rattus norvegicus) + Gamma-aminobutyric acid receptor subunit gamma-2 (Rattus norvegicus) + Muscarinic acetylcholine receptor M3 (Homo sapiens) + D(1A) dopamine receptor (Homo sapiens) + D(4) dopamine receptor (Homo sapiens) + Glutamate receptor ionotropic, kainate 1 (Rattus norvegicus) + Sodium-dependent noradrenaline transporter (Homo sapiens) + Endothelin receptor type B (Homo sapiens) + Alpha-1D adrenergic receptor (Homo sapiens) + Endothelin-1 receptor (Homo sapiens) + Substance-P receptor (Homo sapiens) + Neuropeptide Y receptor type 1 (Homo sapiens) + Adenosine receptor A2a (Homo sapiens) + B2 bradykinin receptor (Homo sapiens) + Adenosine receptor A1 (Homo sapiens) + Sodium-dependent serotonin transporter (Homo sapiens) + Neuronal acetylcholine receptor subunit alpha-3 (Homo sapiens) + Histamine H1 receptor (Homo …. The assay is described as follows: broad ancillary panel percent inhibition – biochemical, MDS panel, selectivity assay for ROMK channel modulator project, profiling panel (AID 1924). The settings on record: MDS Pharma lead profiling binding panel, at 10 µM, stronger effect = higher value.

With `O=[N+]([O-])c1ccc2nc(COCc3nc4ccc([N+](=O)[O-])cc4[nH]3)[nH]c2c1`, the inhibition was 75%. The inhibition (measured here: Adenosine A1 human binding) stood at 14%. Moreover, the inhibition (measured here: Adenosine A3 human binding) was 21%. Further, the inhibition (measured here: Adrenergic a2A human binding) was 14%. The inhibition (measured here: Adrenergic b2 human binding) is 9%. In addition, the inhibition (measured here: Bradykinin B2 human binding) was -16%. The inhibition (measured here: Calcium channel L-type BTZ rat) stood at 22%. For the same compound, the inhibition (measured here: Calcium channel L-type DHP rat) worked out at 26%. For the same compound, the inhibition (measured here: Calcium channel N-type rat) was 0%. In addition, the inhibition (measured here: Dopamine D1 human binding) is -2%. Moreover, for the setting “measured here: Dopamine D2S human binding”, the inhibition was -6%. Also, the inhibition (measured here: Dopamine D3 human binding) is 1%. Further, the inhibition (measured here: Estrogen ER alpha human binding) worked out at 1%.

Source of the values: PubChem BioAssay AID1924 (Vanderbilt High Throughput Screening Facility, 2009).
